Read-outs that look alike come from different tables or passages of the source. Peptide text beside a SMILES is read from it. * marks the point of attachment. Cbz = O=C(OCc1ccccc1)*
Legend:
Format in all cases: biochemical
[1] = target: T1, MTGase (transglutaminase of guinea pig liver) (UniProt P08587); assay: Substrate specificity: reaction of synthetic substrates with hydroxylamine; conditions: Table 9; CBZ-Gln-Gly = 100
T1 construct: The guinea pig liver-derived transglutaminase was prepared by the method described in Connellan et al; from tissue; host or cells: guinea pig liver
T1 sequence (P08587 2-690 limits assumed): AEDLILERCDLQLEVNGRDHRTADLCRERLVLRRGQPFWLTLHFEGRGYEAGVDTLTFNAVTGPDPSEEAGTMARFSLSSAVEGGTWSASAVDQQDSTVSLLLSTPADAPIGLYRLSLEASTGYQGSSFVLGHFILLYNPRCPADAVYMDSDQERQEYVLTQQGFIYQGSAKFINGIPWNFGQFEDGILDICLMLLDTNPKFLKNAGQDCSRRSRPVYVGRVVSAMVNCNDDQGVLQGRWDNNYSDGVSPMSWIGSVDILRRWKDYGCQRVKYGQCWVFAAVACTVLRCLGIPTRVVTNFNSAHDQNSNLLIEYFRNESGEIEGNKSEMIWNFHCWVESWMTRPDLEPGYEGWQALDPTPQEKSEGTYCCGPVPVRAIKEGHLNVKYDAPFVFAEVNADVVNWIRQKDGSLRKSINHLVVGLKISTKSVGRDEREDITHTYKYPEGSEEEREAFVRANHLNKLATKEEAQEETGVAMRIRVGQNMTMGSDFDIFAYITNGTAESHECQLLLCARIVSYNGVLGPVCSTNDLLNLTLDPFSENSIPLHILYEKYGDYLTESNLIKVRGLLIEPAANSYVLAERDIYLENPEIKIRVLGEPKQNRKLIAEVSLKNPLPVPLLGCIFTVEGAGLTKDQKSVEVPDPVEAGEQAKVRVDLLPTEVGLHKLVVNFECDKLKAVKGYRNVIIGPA
Description: (§1) Measurement of the activity of BTGase is carried out by performing a reaction using benzyloxycarbonyl-L-glutaminyl glycine and hydroxylamine as substrates in the absence of Ca^2+, forming an iron complex with the resulting hydroxamic acid in the presence of trichloroacetic acid, measuring absorption at 525 nm and determining the amount of hydroxamic acid by a calibration curve to calculate the activity. The BTGase activity is measured by the method described below, unless otherwise indicated.
(§2) To 0.05 ml of an enzyme solution is added 0.5 ml of Reagent A and they are mixed with each other. After reacting at 37° C. for 10 minutes, Reagent B is added thereto to discontinue the reaction and form an Fe complex. Thereafter, absorbance is measured at 525 nm. As a control, absorbance is measured after reacting a previously thermally inactivated enzyme solution in a similar manner and a difference in absorbance between the control and the enzyme solution is measured. Separately, a calibration curve is prepared using L-glutamic acid γ-monohydroxamic acid instead of the enzyme solution, and the amount of hydroxamic acid produced is determined by the difference in absorbance described above. An enzyme activity which produces 1 μmol of hydroxamic acid per 1 minute is defined as 1 unit.
(§3) Using each BTGase, reactions of various synthetic substrates with hydroxylamine were examined. […] In this case, the concentration of various synthetic substrates is 5 mM. In the table, CBZ, Gln, Gly and Asn are abbreviations for benzyloxycarbonyl group, glutaminyl group, glycyl group and asparaginyl group, respectively.
Next, properties of BTGases are compared to those of guinea pig liver-derived transglutaminase. The guinea pig liver-derived transglutaminase was prepared by the method described in Connellan et al., Journal of Biological Chemistry, Vol. 246, No. 4, pp. 1093-1098 (1971). As will be apparent from Tables 9 and 10, various differences in enzymological properties are noted between transglutaminase of guinea pig liver (hereafter, referred to as MTGase) which has been mainly investigated heretofore and BTGases derived from the genus Streptomyces: in particular, differences are noted in temperature stability, molecular weight, isoelectric point and substrate specificity. Further, a difference is noted in that the BTGases of the present invention act in the presence and absence of Ca^2+. Therefore, the respective enzymes of the present invention are different from MTGase in their properties.

[2] = system: Enzyme No. 83 (transglutaminase of Streptomyces sp No. 83); assay: as above
Description: as §1, §2, §3

[3] = system: Enzyme No. 466 (transglutaminase of Streptomyces lavendulae No. 466); assay: as above
Description: as §1, §2, §3

[4] = system: Enzyme No. 83 (transglutaminase of Streptomyces sp No. 83); assay: Influence of metal ions on transglutaminase activity; conditions: for Activity of Enzyme No. 83 with metal ion (%): metal ion 1 mM in activity measurement system, None = 100, 10 min
Description: as §1
as §2, with “As a control, absorbance is measured after reacting a previously thermally inactivated enzyme solution in a similar manner and a difference in absorbance between the control and the enzyme solution is measured.” left out

[5] = system: Enzyme No. 466 (transglutaminase of Streptomyces lavendulae No. 466); assay: as above; conditions: for Activity of Enzyme No. 466 with metal ion (%): metal ion 1 mM in activity measurement system, None = 100, 10 min
Description: as §1
as §2, with “As a control, absorbance is measured after reacting a previously thermally inactivated enzyme solution in a similar manner and a difference in absorbance between the control and the enzyme solution is measured.” left out

[6] = system: Enzyme No. 83 (transglutaminase of Streptomyces sp No. 83)
Description: as §1
as §2, with “As a control, absorbance is measured after reacting a previously thermally inactivated enzyme solution in a similar manner and a difference in absorbance between the control and the enzyme solution is measured.” left out
(§4) Each inhibitor was added in a concentration of 1 mM.

[7] = system: Enzyme No. 466 (transglutaminase of Streptomyces lavendulae No. 466)
Description: as §1
as §2, with “As a control, absorbance is measured after reacting a previously thermally inactivated enzyme solution in a similar manner and a difference in absorbance between the control and the enzyme solution is measured.” left out
as §4

[8] = target: T1, MTGase (transglutaminase of guinea pig liver); assay: Influence of Ca2+ on activity
Description: as §1, §2
Next, properties of BTGases are compared to those of guinea pig liver-derived transglutaminase. […]

[9] = Table 6, synthetic substrate 5 mM, CBZ-Gln-Gly = 100
[10] = substrate 5 mM, text says BTGase (both enzymes)
[11] = 1 mM, 25° C. for 30 minutes, text says all BTGases
[12] = inhibitor 1 mM, 25° C. for 30 minutes, None = 100

NC(=O)C[C@H](NC(=O)OCc1ccccc1)C(=O)NCC(=O)O [CBZ--Asn--Gly, benzyloxycarbonylasparaginyl glycine] (Cbz-Asn-Gly-OH)
Substrate specificity (%), MTGase [1]: 0% | Substrate specificity, Enzyme No. 83 (reactivity of substrate with hydroxylamine) [2, 9]: 0 | Substrate specificity (%), Enzyme No. 83 ([2]; Table 9, CBZ-Gln-Gly = 100): 0% | Reactivity of synthetic substrate with Enzyme No. 83 (in words) [2, 10]: No BTGase reacts | Substrate specificity, Enzyme No. 466 (reactivity of substrate with hydroxylamine) [3, 9]: 0 | Substrate specificity (%), Enzyme No. 466 ([3]; Table 9, CBZ-Gln-Gly = 100): 0% | Reactivity of synthetic substrate with Enzyme No. 466 (in words) [3, 10]: No BTGase reacts

[Cl-].[Cl-].[Co+2] [CoCl2]
Activity of Enzyme No. 83 with metal ion (%) [4]: 100% | Activity of Enzyme No. 466 with metal ion (%) [5]: 98%

[Ba+2].[Cl-].[Cl-] [BaCl2]
Activity of Enzyme No. 83 with metal ion (%) [4]: 100% | Activity of Enzyme No. 466 with metal ion (%) [5]: 100%

CCN1C(=O)C=CC1=O [NEM, N-ethylmaleimide]
Effect of inhibitor on activity of Enzyme No. 83 (in words) [6, 11]: inhibited | Activity of Enzyme No. 83 with inhibitor [6, 12]: 10 | Effect of inhibitor on activity of Enzyme No. 466 (in words) [7, 11]: inhibited | Activity of Enzyme No. 466 with inhibitor [7, 12]: 5

[Ca+2].[Cl-].[Cl-] [CaCl2]
Activity of MTGase (%) ([8]; 1 mM CaCl2): 39% | Activity of MTGase (%) ([8]; 5 mM CaCl2): 100%

[Cl-].[K+] [KCl]
Activity of Enzyme No. 83 with metal ion (%) [4]: 104%

O=S(=O)(F)Cc1ccccc1 [PMSF, phenylmethylsulfonyl fluoride]
Activity of Enzyme No. 83 with inhibitor [6, 12]: 101 | Activity of Enzyme No. 466 with inhibitor [7, 12]: 103

[Cl-].[Cl-].[Zn+2] [ZnCl2]
Effect of metal ion on activity of Enzyme No. 83 (in words) ([4]; 1 mM, text says all BTGases): inhibited | Activity of Enzyme No. 83 with metal ion (%) [4]: 36% | Effect of metal ion on activity of Enzyme No. 466 (in words) ([5]; 1 mM, text says all BTGases): inhibited | Activity of Enzyme No. 466 with metal ion (%) [5]: 10%

O=C(O)CI [Monoiodoacetic acid, monoiodoacetic acid]
Activity of Enzyme No. 83 with inhibitor [6]: 92 | Effect of inhibitor on activity of Enzyme No. 83 (in words) [6]: inhibited | Activity of Enzyme No. 466 with inhibitor [7]: 87 | Effect of inhibitor on activity of Enzyme No. 466 (in words) [7]: inhibited

[Cl-].[Na+] [NaCl]
Activity of Enzyme No. 83 with metal ion (%) [4]: 102% | Activity of Enzyme No. 466 with metal ion (%) [5]: 98%

[Cl-].[Cl-].[Sr+2] [SrCl2]
Activity of Enzyme No. 83 with metal ion (%) [4]: 100% | Activity of Enzyme No. 466 with metal ion (%) [5]: 97%

Source: patent US5252469A, “Process for producing a transglutaminase derived from streptomyces” (Amano Pharmaceutical Co., Ltd., priority 1990, dated 1993)
